Laboratory results published in patent US4794123A, “Thiazolo- and thiazino- benzimidazoles and their use as anti-ulcer agents” (John Wyeth & Brother Limited, priority 1983, dated 1988).
Where two headings read alike, the source gives them in different places.

Test system: rabbit isolated gastric glands
Test: aminopyrine accumulation in rabbit isolated gastric glands (anti-secretory activity, H+/K+ ATPase inhibitors)
Type: cell-based
Conditions: 10^-4 M, % inhibition of the maximum response to the secretagogue; for inhibition at 100 µM: Oryctolagus cuniculus
Method: Compounds of formula I were tested for anti-secretory activity by their ability to inhibit the highly specific proton transporting enzyme H^+ /K^+ ATPase.
Potential H^+ /K^+ ATPase inhibitors were evaluated by a technique involving the measurements of aminopyrine accumulation in rabbit isolated gastric glands. Aminopyrine accumulates in acid-secreting cells; therefore, uptake of aminopyrine is increased by secretagogues and an inhibitor of acid secretion will reduce the response to one or more secretagogues depending upon its site of action. […] The following test procedure is used:
Rabbit gastric glands are isolated from gastric mucosa from the corpus region of the stomach by a method based on one described by Berglindh T., Obrink, K. J., Acta Physiol. Scand.
Results are expressed as the % inhibition of the maximum response to the secretagogue induced by the test compound. An inhibitor of H^+ /K^+ ATPase would be expected to reduce the response to both secretagogues.

[1] = 14C-aminopyrine uptake stimulated by DBcAMP, read-out: % Inhibition to stimulation by DBcAMP
[2] = 14C-aminopyrine uptake stimulated by high K+, read-out: % Inhibition to stimulation by K+

Row | Compound | % Inhibition to stimulation by DBcAMP (14C-aminopyrine uptake stimulated by DBcAMP) | % Inhibition to stimulation by K+ (14C-aminopyrine uptake stimulated by high K+) | inhibition at 100 µM [1] | inhibition at 100 µM [2]
1 | 6-Ethoxy-2-(2-pyridyl)thiazolo[3,2-a]-benzimidazole and 7-ethoxy-2-(2-pyridyl)thiazolo[3,2-a]benzimidazole | 68% | 162% |  | 
2 | CCc1ccc(-c2cn3c(nc4ccccc43)s2)nc1 [2-(2-(5-Ethylpyridyl))thiazolo[3,2-a]-benzaimidazole] |  |  | 56% | 142%
3 | c1ccc(-c2cccc(-c3cn4c(nc5ccccc54)s3)n2)cc1 [2-[2-(6-Phenylpyridyl)]thiazolo[3,2-a]benzimidazole] |  |  | 22% | 381%
